The supplement of paper PMC10307832

What was measured:
Test in all cases: relative viability (nuclei count vs DMSO), 5 days (fraction); higher = more cells survive
Seliciclib + Pemetrexed = compound: CC[C@H](CO)Nc1nc(NCc2ccccc2)c2ncn(C(C)C)c2n1 [Seliciclib] + Nc1nc2[nH]cc(CCc3ccc(C(=O)N[C@@H](CCC(=O)O)C(=O)O)cc3)c2c(=O)[nH]1 [Pemetrexed] (partner 0.2 µM)
In short: (§1)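 Each reported value is a median over duplicate plates. It expresses relative viability: treated-well nuclei count divided by vehicle-well nuclei count. Lung cancer cell lines in 1536-well plates were dosed by pin tool a day after seeding, alone with one drug or with a fixed anchor-drug dose plus five library-drug doses (not always all listed) in √10 steps, and nuclei were counted after 5 days.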

Seliciclib + AZD7762 = compound: CC[C@H](CO)Nc1nc(NCc2ccccc2)c2ncn(C(C)C)c2n1 [Seliciclib] + NC(=O)Nc1cc(-c2cccc(F)c2)sc1C(=O)N[C@H]1CCCNC1 [AZD7762] (partner 0.2 µM)
In short: as §1

Seliciclib + OSI-027 = compound: CC[C@H](CO)Nc1nc(NCc2ccccc2)c2ncn(C(C)C)c2n1 [Seliciclib] + COc1cccc2cc(-c3nc([C@H]4CC[C@H](C(=O)O)CC4)n4ncnc(N)c34)[nH]c12 [OSI-027] (partner 0.5 µM)
In short: as §1

Seliciclib + Foretinib = compound: CC[C@H](CO)Nc1nc(NCc2ccccc2)c2ncn(C(C)C)c2n1 [Seliciclib] + COc1cc2c(Oc3ccc(NC(=O)C4(C(=O)Nc5ccc(F)cc5)CC4)cc3F)ccnc2cc1OCCCN1CCOCC1 [Foretinib] (partner 0.25 µM)
In short: as §1

Cell Line | relative viability (Seliciclib + Pemetrexed; first compound 0.08 µM) | relative viability (Seliciclib + Pemetrexed; first compound 0.253 µM) | relative viability (Seliciclib + Pemetrexed; first compound 0.8 µM) | relative viability (Seliciclib + Pemetrexed; first compound 2.53 µM) | relative viability (Seliciclib + Pemetrexed; first compound 8 µM) | relative viability (Seliciclib + AZD7762; first compound 0.08 µM) | relative viability (Seliciclib + AZD7762; first compound 0.253 µM) | relative viability (Seliciclib + AZD7762; first compound 0.8 µM) | relative viability (Seliciclib + AZD7762; first compound 2.53 µM) | relative viability (Seliciclib + AZD7762; first compound 8 µM) | relative viability (Seliciclib + OSI-027; first compound 0.08 µM) | relative viability (Seliciclib + OSI-027; first compound 0.253 µM) | relative viability (Seliciclib + OSI-027; first compound 0.8 µM) | relative viability (Seliciclib + OSI-027; first compound 2.53 µM) | relative viability (Seliciclib + OSI-027; first compound 8 µM) | relative viability (Seliciclib + Foretinib; first compound 0.08 µM) | relative viability (Seliciclib + Foretinib; first compound 0.253 µM) | relative viability (Seliciclib + Foretinib; first compound 0.8 µM) | relative viability (Seliciclib + Foretinib; first compound 2.53 µM) | relative viability (Seliciclib + Foretinib; first compound 8 µM)
NCI-H2126 | 0.631 | 0.683 | 0.682 | 0.515 | 0.542 | 1.04 | 0.987 | 0.994 | 0.822 | 0.909 | 0.75 | 0.715 | 0.649 | 0.354 | 0.515 | 1.11 | 1.21 | 1.07 | 0.968 | 0.943
LXF-289 | 0.883 | 1.04 | 0.81 | 0.932 | 0.842 | 1.09 | 1.33 | 1.06 | 1.16 | 0.993 | 0.781 | 0.667 | 0.769 | 0.421 | 0.762 | 0.95 | 1.16 | 0.973 | 0.943 | 0.86
NCI-H460 | 0.0625 | 0.0553 | 0.0625 | 0.0593 | 0.0753 | 0.567 | 0.752 | 0.71 | 1.06 | 0.773 | 0.706 | 0.601 | 0.672 | 0.563 | 0.561 | 0.993 | 1.05 | 1 | 1.06 | 0.882
NCI-H1395 | 0.932 | 0.757 | 0.854 | – | 0.756 | 0.41 | 0.436 | 0.419 | – | 0.533 | 0.728 | 0.576 | 0.606 | 0.612 | 0.587 | 0.974 | 0.905 | 0.978 | 0.995 | 0.966
NCI-H1793 | 0.842 | 0.741 | 0.77 | 0.857 | 0.912 | 0.51 | 0.45 | 0.547 | 0.792 | 1.09 | 0.299 | 0.219 | 0.252 | 0.194 | 0.238 | 0.706 | 0.6 | 0.654 | 0.712 | 0.456
